Molecular target: T1, ArPR (Agastache rugosa, UniProt A0A977TNC5)
T1 construct: pET28a (BamHI/SacI) His-tag fusion, E. coli BL21(DE3), Ni-NTA and gel filtration
Assay: in vitro reduction, GC
Format: biochemical
Settings: NADPH

T1 sequence (A0A977TNC5 1-343): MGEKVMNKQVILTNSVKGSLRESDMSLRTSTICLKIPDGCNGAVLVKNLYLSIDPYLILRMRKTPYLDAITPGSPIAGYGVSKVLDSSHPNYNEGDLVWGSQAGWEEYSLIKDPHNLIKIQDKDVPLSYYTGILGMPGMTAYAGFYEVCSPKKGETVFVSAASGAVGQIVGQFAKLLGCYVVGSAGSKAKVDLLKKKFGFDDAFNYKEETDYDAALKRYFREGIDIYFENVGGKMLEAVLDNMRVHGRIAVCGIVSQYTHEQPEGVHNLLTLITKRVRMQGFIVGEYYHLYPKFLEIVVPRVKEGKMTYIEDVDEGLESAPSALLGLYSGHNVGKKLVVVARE

## CC(C)=C1CC[C@H](C)CC1=O [(−)-pulegone]
  in vitro reduction, GC: showed a higher preference for (−)-pulegone over (+)-pulegone

Reference: article PMC8670242, “Functional Characterization and Structural Insights Into Stereoselectivity of Pulegone Reductase in Menthol Biosynthesis” (Frontiers in Plant Science, 2021)
